Results published in patent publication US10117912B2 (priority 2013, dated 2018).
≈ marks a conversion by molar mass, not a printed value. Where two headings read alike, the source gives them in different places.

Columns and labels:
[1] = test system: MDCKII-wt monolayer
[2] = Equilibrium solubility of phenytoin in assay buffer; type: physicochemical
Procedure: 10 mg of phenytoin was added to a 20 mL scintillation vial containing 2 mL assay buffer, pH 7.4 (122 mM NaCl, 25 mM NaHCO3, 10 mM glucose, 10 mM HEPES, 3 mM KCl, 1.2 mM MgSO4, 1.4 mM CaCl2, and 0.4 mM K2HPO4). The vials were placed in a shaker incubator at different temperatures (28, 32 and 37° C.). After 48 h, drug suspension from vial was centrifuged at 13000 g for 20 min. Using a 0.2 μm syringe filter, the supernatant was filtered into a fresh glass vial and analyzed using HPLC. The experiments were performed in triplicate.

[3] = test system: alkaline phosphatase from bovine intestinal mucosa; type: biochemical
[4] = prodrug S=6.1 with 0.6 IU/mL enzyme, 3 h

alkaline phosphatase
membrane integrity (TEER) ([1]; pH 7.4): not compromised

O=C1NC(=O)C(c2ccccc2)(c2ccccc2)N1 [phenytoin]
effect of temperature on solubility ([2]; 28° C. and 37° C., pH 7.4): unaffected
solubility at 48 h ([2]; aqueous buffer, thermodynamic from solid, pH 7.4 and 32° C., assay buffer, 48 h): 126 ± 5.6 µM (≈ 31.9 µg/mL)

O=C1NC(c2ccccc2)(c2ccccc2)C(=O)N1COP(=O)(O)O [fosphenytoin, Fosphenytoin disodium]
kcat [3]: 2880 s⁻¹
extent of conversion of prodrug to drug ([3]; fosphenytoin 586 μM, various enzyme concentrations): Complete conversion
Vmax (Michaelis-Menten) ([3]; pH 7.4): 51.1 ± 1.8 µM/min
Km ([3]; pH 7.4, read-out: KM (Michaelis-Menten)): 828 ± 81.6 µM
membrane integrity (TEER) ([1]; 3 h treatment, pH 7.4, 32° C., enzyme alone or prodrug alone at S=0.8 or S=6.1): not compromised
TEER value [1, 4]: > 60 ohms/cm^2
membrane integrity (TEER), prodrug with enzyme [1, 4]: minor compromise of intercellular tight junctions
